The source of these data is US4400384A, “5-o-Cyanobenzyl-4,5,6,7-tetrahydrothieno [3,2-c] pyridine methanesulfonate and other novel salts thereof” (Sanofi, S.A., priority 1980, dated 1983).

The test system of experiment [1] is blood-platelet aggregation (ADP). As to the kind of experiment: Inhibitor action on blood-platelet aggregation, ADP method (ex vivo after gastric tube dosing). Type of experiment: in vivo, female rats of the Wistar type. The conditions noted are these: 100 mg/Kg base equivalent at 48, 24 and 2 h before blood drawing. The method, then: (§1) The inhibitor action on blood-platelet aggregation of the salts of the present invention was determined by two different standard methods known to the art.
(§2) The first method, involving the use of ADP (adenosine diphosphate), is that of Ferrand J. C., Gaich C., Dumas, A.--EVALUATION DE L' EFFET ANTI-AGREGANT DE LA TICLOPIDINE PAR UNE TECHNIQUE SUR SANG TOTAL. COMM. SOCIETE DE BIOLOGIE DE TOULOUSE (TOULOUSE Feb. 9, 1978), RESUME IN: REV MED TOULOUSE, 1978, 14, (SUPPL. 5) 680, referred to hereinafter as the ADP method.
(§3) Groups of 10 female rats of the Wistar type were each dosed with one of the base or one of the salts of the invention and with the corresponding maleate salt of Amselem U.S. Pat. No. 4,097,482, at periods of 48 hours, 24 hours and 2 hours prior to drawing blood for testing by the ADP and collagen techniques referred to above. The active medicaments were administered by means of a gastric tube in the form of a 5% aqueous solution of gum arabic. A dosage level of 100 mg/Kg was used for the base, and for the salts an amount was used sufficient to provide the equivalent amount of the base portion of the salt.

The test system of experiment [2] is blood-platelet aggregation (collagen). Kind of experiment: Inhibitor action on blood-platelet aggregation, collagen method (ex vivo after gastric tube dosing). Type of experiment: in vivo, female rats of the Wistar type. The conditions noted are these: 100 mg/Kg base equivalent at 48, 24 and 2 h before blood drawing. As for the experimental part:
as §1
(§4) The second method is that described in Ferrand J. C., Lale A.--NUMERATION ET AGREGATION PLAQUETTAIRE A L AIDE DE L AUTOCOUNTER. APPLICATION A L ETUDE DE LA TICLOPIDINE. COMM. SYMPOSIUM TECHNICON INDUSTRIE (PARIS, June 15, 1978); Ferrand J. C., Lale A.--EVALUATION EX-VIVO DE L AGREGATION PLAQUETTAIRE PAR UNE TECHNIQUE AUTOMATIQUE SUR SANG TOTAL COMM. SOCIETE FRANCAISE DE BIOLOGIE CLINIQUE (PARIS Sept. 28, 1979); and J. C. Ferrand, A. Lale, D. Aubert and G. Barthelemy--APPRECIATION QUANTITATIVE DE L' ACTIVITE ANTI-AGREGANTE DE LA TICLOPIDINE PAR VOIE AUTOMATIQUE. COMM. REUNION DE L' ASOCIATION FRANCAISE DE PHARMACOLOGISTES DIJON (May 2-3, 1980), and is referred to hereafter as the collagen method.
as §3

The conditions of experiment [3]: prior art maleate; cited from earlier work.
For experiment [4], the system named is blood-platelet aggregation. As to the kind of experiment: Inhibition of blood-platelet aggregation (general statement). The class given is in vivo. The conditions noted are these: result in words. As for the experimental part:
as §1, §2
as §4, with “method. […]” for “method.”

For experiment [5] the following is noted: prior art maleate; cited from earlier work. This is another data set of the same source.

SMILES strings stand for the structures. Counter-ions that a name gives are not always drawn.

With `N#Cc1ccccc1CN1CCc2sccc2C1` [Hemifumarate, 5-o-cyanobenzyl-4,5,6,7-tetrahydrothieno [3,2-c] pyridine], in experiment [1] (controls 0.29, 100 mg/kg), the “BLOOD PLATELET AGGREGATION, ADP, 1 mn 30 s” value is listed as 0.76. The “BLOOD PLATELET AGGREGATION, ADP, 3 mn” value in experiment [1] (controls 0.40, 100 mg/kg) was determined as 0.82. Besides, the “BLOOD PLATELET AGGREGATION, COLLAGEN” value in experiment [2] (controls 2.53, 100 mg/kg) came to 0.42.
The matching figures for `N#Cc1ccccc1CN1CCc2sccc2C1` [Hemitartrate, 5-o-cyanobenzyl-4,5,6,7-tetrahydrothieno [3,2-c] pyridine]: 0.74, 0.84 and 0.74.
The matching figures for `N#Cc1ccccc1CN1CCc2sccc2C1` [Hydrochloride, 5-o-cyanobenzyl-4,5,6,7-tetrahydrothieno [3,2-c] pyridine]: 0.82, 0.82 and 0.84.
On to `N#Cc1ccccc1CN1CCc2sccc2C1.O=C(O)/C=C\C(=O)O` [Maleate, 5-o-cyanobenzyl-4,5,6,7-tetrahydrothieno [3,2-c] pyridine maleate, reference compound], for which the “anti-inflammatory activity (prior art salt)” value in experiment [3] is recorded as “not free of anti-inflammatory”. Besides, in experiment [1] (controls 0.29), the “BLOOD PLATELET AGGREGATION, ADP, 1 mn 30 s” value was found to be 0.70. For the same molecule, the “BLOOD PLATELET AGGREGATION, ADP, 3 mn” value in experiment [1] (controls 0.40) is 0.81. In experiment [2] (controls 2.53), the “BLOOD PLATELET AGGREGATION, COLLAGEN” value is 0.80. Besides, in experiment [4], the “inhibitor action against blood-platelet aggregation” value is “substantial activity in the inhibition of blood-platelet aggregation”. Further, in experiment [5], the “vasodilator activity (prior art salt)” value is recorded as “not free of anti-inflammatory or vasodilator activity”.
As to `N#Cc1ccccc1CN1CCc2sccc2C1` [Nitrate, 5-o-cyanobenzyl-4,5,6,7-tetrahydrothieno [3,2-c] pyridine], the “BLOOD PLATELET AGGREGATION, ADP, 1 mn 30 s” value in experiment [1] (controls 0.29, 100 mg/kg) is reported as 0.84. The “BLOOD PLATELET AGGREGATION, ADP, 3 mn” value in experiment [1] (controls 0.40, 100 mg/kg) is 0.83. For the same molecule, the “BLOOD PLATELET AGGREGATION, COLLAGEN” value in experiment [2] (controls 2.53, 100 mg/kg) was found to be 0.91.
